Laboratory results taken from US7452908B2, “Amide derivatives” (Banyu Pharmaceutical Co., Ltd., priority 1999, dated 2008).

Columns and labels:
[1] = biological target: T1, M2 receptor in isolated rat right atrium (Rattus norvegicus, UniProt P10980); assay: Antagonism to M2 receptor in isolated rat right atrium (carbachol-induced decrease in heart rate); type: cell-based; details: shift of carbachol dose-response curve
T1 construct: from tissue; host or cells: right atrium of male SD rats
T1 sequence (P10980 1-466): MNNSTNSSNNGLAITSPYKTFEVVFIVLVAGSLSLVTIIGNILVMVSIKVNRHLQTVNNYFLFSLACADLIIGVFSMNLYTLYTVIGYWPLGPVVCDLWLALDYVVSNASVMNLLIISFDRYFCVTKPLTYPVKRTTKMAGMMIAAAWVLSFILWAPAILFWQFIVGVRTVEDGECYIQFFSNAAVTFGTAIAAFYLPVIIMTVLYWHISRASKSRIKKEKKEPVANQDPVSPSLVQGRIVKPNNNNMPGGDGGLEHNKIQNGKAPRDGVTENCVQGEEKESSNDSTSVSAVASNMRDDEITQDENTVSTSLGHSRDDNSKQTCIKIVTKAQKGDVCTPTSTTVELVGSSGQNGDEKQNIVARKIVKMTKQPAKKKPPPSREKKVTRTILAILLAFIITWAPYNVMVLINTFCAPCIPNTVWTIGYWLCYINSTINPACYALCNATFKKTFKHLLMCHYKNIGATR
Experimental: The test was performed according to a conventional method. Male SD strain rats (weighing 300-500 g) were killed by exsanguination, and from each of them the right atrium was isolated. Each preparation was isometrically suspended in a Magnus tube filled with 20 ml of Krebs-Henseleit solution (gassed with 95% O2-5% CO2 and kept at 32° C.) with an initial tension of 0.5 g. The heart rate was recorded with a heart rate counter. After the preparation was equilibrated for 30 minutes, carbachol (10^−9 to 10^−6 M) was cumulatively administered from a low concentration to three-fold increasing doses and accompanying decrease in heart rate was measured to obtain a dose-responsecurve for the control experiment. Afterthe preparation was washed with fresh solution to restore the heart rate, a test compound was administered thereto. Ten minutes later, carbachol was cumulatively administered again. Responses to carbachol were expressed as percentages based on the heart rate before administration of carbachol as 100%. The antagonistic potency (KB value) of the test compound was determined from the degree of shift of the dose-responsecurve attributable to the treatment with individual test compound of the present invention. The results were as shown in Tables 2-1 and 2-2. • 2) Test for Antagonism to the Airway M3 Receptor in Isolated Rat Trachea

[2] = biological target: T2, human m4 muscarinic acetylcholine receptor expressed in CHO cells (Homo sapiens, UniProt P08173); assay: Inhibition of [3H]-N-methylscopolamine binding to muscarinic m4 receptor; details: 0.2 nM [3H]-N-methylscopolamine
T2 construct: purchased Receptor Biology, Inc; host or cells: CHO cells
T2 sequence (P08173 1-479): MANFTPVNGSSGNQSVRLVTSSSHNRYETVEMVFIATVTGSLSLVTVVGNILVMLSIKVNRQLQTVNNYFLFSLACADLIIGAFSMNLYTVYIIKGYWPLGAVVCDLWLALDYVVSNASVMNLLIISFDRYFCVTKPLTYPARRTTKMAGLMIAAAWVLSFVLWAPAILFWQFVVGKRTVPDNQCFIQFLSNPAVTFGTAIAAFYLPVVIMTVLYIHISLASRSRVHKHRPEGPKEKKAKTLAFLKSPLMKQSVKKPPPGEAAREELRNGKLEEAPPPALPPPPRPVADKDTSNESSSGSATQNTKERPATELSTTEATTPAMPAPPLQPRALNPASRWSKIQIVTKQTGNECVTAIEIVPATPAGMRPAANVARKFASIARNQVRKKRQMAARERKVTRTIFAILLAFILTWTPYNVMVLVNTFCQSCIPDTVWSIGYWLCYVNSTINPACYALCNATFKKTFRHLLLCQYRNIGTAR
Experimental: (§1) These tests were performed according to a modification of the method of Hargreaves, et al. (Br. J. Pharmacol. 107: 494-501, 1992). Namely, muscarinic acetylcholine receptors of human m1, m2, m3, m4 and m5 expressed in CHO cells (Receptor Biology, Inc.) were incubated with 0.2 nM [^3H]-N-methylscopolamine (82Ci/mmol, New England Nuclear, Inc.) and a test compound to be tested in 0.5 ml of 50 mM Tris-HCl, 10 mM MgCl2, 1 mM EDTA solution (pH 7.4) for 120 minutes at room temperature (about 20-25° C.), followed by suction filtration over a glass filter (UniFilter plate-GF/C; Packard). Then the filter was washed four times with 1 ml of ice-cold Tris-HCl buffer and dried at 50° C. for an hour. After adding a scintillator (Microscinti 0; Packard), the radioactivity of [^3H]-N-methylscopolamine binding to the filter was counted with a microplate scintillation counter (TopCount™; Packard). Non-specific receptor binding of [^3H]-N-methylscopolamine was measured by adding 1 μM N-methylscopolamine.

[3] = biological target: T3, human m2 muscarinic acetylcholine receptor expressed in CHO cells (Homo sapiens, UniProt P08172); assay: Inhibition of [3H]-N-methylscopolamine binding to muscarinic m2 receptor; details: 0.2 nM [3H]-N-methylscopolamine
T3 construct: purchased Receptor Biology, Inc; host or cells: CHO cells
T3 sequence (P08172 1-466): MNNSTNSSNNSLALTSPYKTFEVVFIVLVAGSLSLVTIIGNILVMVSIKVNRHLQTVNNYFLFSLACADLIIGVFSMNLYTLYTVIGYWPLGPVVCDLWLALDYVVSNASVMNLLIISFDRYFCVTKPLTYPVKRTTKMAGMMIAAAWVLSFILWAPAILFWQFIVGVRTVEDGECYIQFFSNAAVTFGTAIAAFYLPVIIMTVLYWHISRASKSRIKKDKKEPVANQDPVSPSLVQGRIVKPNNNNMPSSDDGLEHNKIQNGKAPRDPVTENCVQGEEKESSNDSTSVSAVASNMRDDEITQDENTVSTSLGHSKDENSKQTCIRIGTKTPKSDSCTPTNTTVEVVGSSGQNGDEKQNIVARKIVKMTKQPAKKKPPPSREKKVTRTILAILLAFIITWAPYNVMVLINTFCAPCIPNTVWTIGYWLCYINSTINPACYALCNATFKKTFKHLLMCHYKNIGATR
Experimental: as §1

Structure (SMILES)	Kb [1] [nM]	Ki [2] [nM]	Ki [3] [nM]
CC[N+]1(CC)CCC[C@H](CNC(=O)[C@H]2CCCN2C(=O)[C@@H]2C[C@@H](O)CN2C(=O)CC(c2ccccc2)(c2ccccc2)c2ccccc2)C1.[Cl-] [Example 133, (3R)-1,1-diethyl-3-({({(2R)-1-({(2S,4R)-4-hydroxy-1-(3,3,3-triphenylpropanoyl)-2-pyrrolidinyl}carbonyl)-2-pyrrolidinyl}carbonyl)amino}methyl)piperidinium chloride]	41	140	810
O=C(CCNC(=O)CNC(=O)CC(c1ccccc1)(c1ccccc1)c1ccccc1)NC[C@H]1CCCN(CC2CCCCC2)C1 [Example 12, N-{2-(3-{((3R)-1-cyclohexylmethyl-3-piperidyl)methyl}amino-3-oxopropyl)amino-2-oxoethyl}-3,3,3-triphenyloropanamide]	160	18	34
